Holding throughout (experiment): relative viability (nuclei count vs DMSO), 5 days (fraction); higher = more cells survive
Compound in test [1]: NCC(=O)Nc1ccc(-n2nc(C(F)(F)F)cc2-c2ccc3c(ccc4ccccc43)c2)cc1 + COc1cc2c(Oc3ccc(NC(=O)C4(C(=O)Nc5ccc(F)cc5)CC4)cc3F)ccnc2cc1OCCCN1CCOCC1 [Foretinib] (partner 0.25 µM)
The method in brief: (§1)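 Relative viability was taken as the ratio of nuclei in treated wells to nuclei in vehicle wells. Lung cancer cell lines in 1536-well plates received compounds by pin tool one day after seeding, either one drug alone or a fixed anchor-drug dose plus five library-drug doses (not always all listed) in √10 steps. Nuclei were counted on 4× images after 5 days of treatment, and values are medians of duplicate plates.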

Compound in test [2]: NCC(=O)Nc1ccc(-n2nc(C(F)(F)F)cc2-c2ccc3c(ccc4ccccc43)c2)cc1 + CC(=O)Nc1cccc(-n2c(=O)n(C3CC3)c(=O)c3c(Nc4ccc(I)cc4F)n(C)c(=O)c(C)c32)c1 [Trametinib] (partner 0.02 µM)
The essentials: as §1

Compound in test [3]: C1CSC2=C(C(=O)N1)SC3=C2C=C(C=C3)O [kb NB 142-70] + N=C(N)NC(=N)NCCc1ccccc1 [Phenformin] (partner 250 µM)
The method in brief:
as §1

Compound in test [4]: C1CSC2=C(C(=O)N1)SC3=C2C=C(C=C3)O [kb NB 142-70] + Cc1cc(Nc2cc(N3CCN(C)CC3)nc(Sc3ccc(NC(=O)C4CC4)cc3)n2)n[nH]1 [Tozasertib] (partner 0.1 µM)
The method in brief: as §1

Take NCI-H3122: the relative viability is 0.973 in test [1] (first compound 0.02 µM); 0.906 in test [1] (first compound 0.06325 µM); 1.01 in test [1] (first compound 0.2 µM); 0.962 in test [1] (first compound 0.6325 µM); 0.888 in test [1] (first compound 2 µM); 0.204 in test [2] (first compound 0.02 µM). Also, the relative viability in test [2] (first compound 0.06325 µM) came to 0.245; in test [2] (first compound 0.2 µM), 0.188; in test [2] (first compound 0.6325 µM), 0.232; in test [2] (first compound 2 µM), 0.261; in test [3] (first compound 0.1 µM), 0.412; in test [3] (first compound 1 µM) it was 0.396. The relative viability stood at 0.347 in test [3] (first compound 3.162 µM), 0.366 in test [4] (first compound 0.1 µM), 0.459 in test [4] (first compound 1 µM) and 0.165 in test [4] (first compound 3.162 µM).

As to PC-3 [JPC-3], the relative viability in test [1] (first compound 0.02 µM) is 1.08; in test [1] (first compound 0.06325 µM), 1.1; in test [1] (first compound 0.2 µM), 1.12; in test [1] (first compound 0.6325 µM) it was 1.08; in test [1] (first compound 2 µM), 1.16; in test [2] (first compound 0.02 µM), 0.701. For the same cell line, the relative viability in test [2] (first compound 0.06325 µM) stood at 0.776; in test [2] (first compound 0.2 µM), 0.715; in test [2] (first compound 0.6325 µM), 0.71; in test [2] (first compound 2 µM), 0.775; in test [3] (first compound 0.1 µM) it was 0.475; in test [3] (first compound 1 µM), 0.472. Further, the relative viability in test [3] (first compound 3.162 µM) worked out at 0.474; in test [4] (first compound 0.1 µM), 0.923; in test [4] (first compound 1 µM), 0.94; in test [4] (first compound 3.162 µM), 0.773.

In the case of PC-14, the relative viability is 1.03 in test [1] (first compound 0.02 µM); 1.09 in test [1] (first compound 0.06325 µM); 0.942 in test [1] (first compound 0.2 µM); 0.98 in test [1] (first compound 0.6325 µM); 0.944 in test [1] (first compound 2 µM); 0.861 in test [2] (first compound 0.02 µM). For the same cell line, the relative viability is 0.704 in test [2] (first compound 0.06325 µM); 0.625 in test [2] (first compound 0.6325 µM); 0.608 in test [2] (first compound 2 µM); 0.658 in test [3] (first compound 0.1 µM); 0.56 in test [3] (first compound 1 µM); 0.619 in test [3] (first compound 3.162 µM). Besides, the relative viability is 0.569 in test [4] (first compound 0.1 µM), 0.612 in test [4] (first compound 1 µM) and 0.531 in test [4] (first compound 3.162 µM).

Turning to RERF-LC-KJ, the relative viability in test [1] (first compound 0.02 µM) stood at 0.963; in test [1] (first compound 0.06325 µM), 1.06; in test [1] (first compound 0.2 µM), 0.927; in test [1] (first compound 0.6325 µM) it was 0.466; in test [1] (first compound 2 µM), 0.851; in test [2] (first compound 0.02 µM) it was 0.89. Moreover, the relative viability was 0.839 in test [2] (first compound 0.06325 µM); 0.847 in test [2] (first compound 0.2 µM); 0.843 in test [2] (first compound 0.6325 µM); 0.848 in test [2] (first compound 2 µM); 0.409 in test [3] (first compound 0.1 µM); 0.463 in test [3] (first compound 1 µM). Also, the relative viability worked out at 0.445 in test [3] (first compound 3.162 µM), 0.445 in test [4] (first compound 0.1 µM), 0.486 in test [4] (first compound 1 µM) and 0.445 in test [4] (first compound 3.162 µM).

Turning to SK-LU-1, the relative viability came to 0.845 in test [1] (first compound 0.02 µM); 0.843 in test [1] (first compound 0.06325 µM); 0.97 in test [1] (first compound 0.2 µM); 0.785 in test [1] (first compound 0.6325 µM); 0.85 in test [1] (first compound 2 µM); 0.43 in test [2] (first compound 0.02 µM). The relative viability in test [2] (first compound 0.06325 µM) is 0.519; in test [2] (first compound 0.2 µM) it was 0.537; in test [2] (first compound 0.6325 µM), 0.521; in test [2] (first compound 2 µM), 0.576; in test [3] (first compound 0.1 µM), 0.546; in test [3] (first compound 1 µM) it was 0.451. The relative viability in test [3] (first compound 3.162 µM) was found to be 0.265; in test [4] (first compound 0.1 µM) it was 0.339; in test [4] (first compound 1 µM), 0.282; in test [4] (first compound 3.162 µM) it was 0.182.

SK-MES-1: the relative viability in test [1] (first compound 0.02 µM) came out at 0.955; in test [1] (first compound 0.06325 µM), 0.896; in test [1] (first compound 0.2 µM), 0.995; in test [1] (first compound 0.6325 µM), 0.959; in test [1] (first compound 2 µM) it was 1.06; in test [2] (first compound 0.02 µM) it was 0.56. Also, the relative viability in test [2] (first compound 0.06325 µM) is 0.555; in test [2] (first compound 0.2 µM), 0.612; in test [2] (first compound 0.6325 µM) it was 0.511; in test [2] (first compound 2 µM), 0.593; in test [3] (first compound 0.1 µM), 0.754; in test [3] (first compound 1 µM) it was 0.658. For the same cell line, the relative viability in test [3] (first compound 3.162 µM) worked out at 0.407; in test [4] (first compound 0.1 µM), 0.867; in test [4] (first compound 1 µM) it was 0.85; in test [4] (first compound 3.162 µM), 0.221.

For the cell line SW 900, the relative viability in test [1] (first compound 0.06325 µM) came out at 1; in test [1] (first compound 0.2 µM), 0.863; in test [1] (first compound 0.6325 µM), 0.855; in test [1] (first compound 2 µM) it was 1.04; in test [2] (first compound 0.02 µM), 0.889; in test [2] (first compound 0.06325 µM), 1.04. Also, the relative viability in test [2] (first compound 0.2 µM) amounted to 1; in test [2] (first compound 0.6325 µM), 0.736; in test [2] (first compound 2 µM), 0.78; in test [3] (first compound 0.1 µM), 0.495; in test [3] (first compound 1 µM) it was 0.521; in test [3] (first compound 3.162 µM) it was 0.193. Also, the relative viability came out at 0.608 in test [4] (first compound 0.1 µM), 0.472 in test [4] (first compound 1 µM) and 0.407 in test [4] (first compound 3.162 µM).

For SW 1573, the relative viability in test [1] (first compound 0.02 µM) is 0.986; in test [1] (first compound 0.06325 µM), 0.867; in test [1] (first compound 0.2 µM), 0.87; in test [1] (first compound 0.6325 µM), 0.895; in test [1] (first compound 2 µM), 0.905; in test [2] (first compound 0.02 µM), 0.551. The relative viability in test [2] (first compound 0.06325 µM) amounted to 0.436; in test [2] (first compound 0.2 µM) it was 0.637; in test [2] (first compound 0.6325 µM) it was 0.565; in test [2] (first compound 2 µM) it was 0.476; in test [3] (first compound 0.1 µM), 0.378; in test [3] (first compound 1 µM), 0.264. Moreover, the relative viability in test [3] (first compound 3.162 µM) was 0.175; in test [4] (first compound 0.1 µM), 0.153; in test [4] (first compound 1 µM) it was 0.182; in test [4] (first compound 3.162 µM) it was 0.146.

For the cell line UMC-11, the relative viability in test [1] (first compound 0.02 µM) is 0.974; in test [1] (first compound 0.06325 µM), 1.04; in test [1] (first compound 0.2 µM), 1.06; in test [1] (first compound 0.6325 µM) it was 1.01; in test [1] (first compound 2 µM) it was 1.11; in test [2] (first compound 0.02 µM) it was 0.645. The relative viability stood at 0.85 in test [2] (first compound 0.06325 µM); 0.751 in test [2] (first compound 0.2 µM); 0.773 in test [2] (first compound 0.6325 µM); 0.747 in test [2] (first compound 2 µM); 0.338 in test [3] (first compound 0.1 µM); 0.307 in test [3] (first compound 1 µM). The relative viability in test [3] (first compound 3.162 µM) is 0.251; in test [4] (first compound 0.1 µM), 0.217; in test [4] (first compound 1 µM), 0.179; in test [4] (first compound 3.162 µM) it was 0.18.

(Values after the supplement of paper PMC10307832.)
